From publication PMC4310350 (Drug Design, Development and Therapy, 2015)
“Also recorded” adds a separate entry of the source.

Columns and labels:
OAT1 [1] = molecular target: T1, OAT1 (Homo sapiens, UniProt Q4U2R8); assay: Inhibitory effect of catalposide on OAT1 transport activity; assay type: in vitro ADME; conditions: probe 1 μM PAH, catalposide 0–100 μM
T1 sequence (Q4U2R8 1-563): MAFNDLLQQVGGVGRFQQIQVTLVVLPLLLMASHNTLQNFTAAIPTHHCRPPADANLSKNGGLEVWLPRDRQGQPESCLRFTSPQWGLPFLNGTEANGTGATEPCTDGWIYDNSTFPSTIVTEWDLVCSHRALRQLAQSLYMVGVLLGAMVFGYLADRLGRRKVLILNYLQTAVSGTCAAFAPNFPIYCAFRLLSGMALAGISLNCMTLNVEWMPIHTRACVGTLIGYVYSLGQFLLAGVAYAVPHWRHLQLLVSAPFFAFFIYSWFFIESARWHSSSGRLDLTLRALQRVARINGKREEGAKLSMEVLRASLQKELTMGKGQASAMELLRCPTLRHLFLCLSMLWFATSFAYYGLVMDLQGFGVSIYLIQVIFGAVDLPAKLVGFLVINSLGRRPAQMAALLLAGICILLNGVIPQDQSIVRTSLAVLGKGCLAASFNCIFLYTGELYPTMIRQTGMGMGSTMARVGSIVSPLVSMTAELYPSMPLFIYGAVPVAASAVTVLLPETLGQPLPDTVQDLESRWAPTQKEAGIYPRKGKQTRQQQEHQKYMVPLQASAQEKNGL

OATP1B1 = molecular target: T2, OATP1B1 (Homo sapiens, UniProt Q9Y6L6); assay: Uptake in HEK293 cells overexpressing OATP1B1; assay type: in vitro ADME; conditions: OATP1B1-mediated uptake
T2 sequence (Q9Y6L6 1-691): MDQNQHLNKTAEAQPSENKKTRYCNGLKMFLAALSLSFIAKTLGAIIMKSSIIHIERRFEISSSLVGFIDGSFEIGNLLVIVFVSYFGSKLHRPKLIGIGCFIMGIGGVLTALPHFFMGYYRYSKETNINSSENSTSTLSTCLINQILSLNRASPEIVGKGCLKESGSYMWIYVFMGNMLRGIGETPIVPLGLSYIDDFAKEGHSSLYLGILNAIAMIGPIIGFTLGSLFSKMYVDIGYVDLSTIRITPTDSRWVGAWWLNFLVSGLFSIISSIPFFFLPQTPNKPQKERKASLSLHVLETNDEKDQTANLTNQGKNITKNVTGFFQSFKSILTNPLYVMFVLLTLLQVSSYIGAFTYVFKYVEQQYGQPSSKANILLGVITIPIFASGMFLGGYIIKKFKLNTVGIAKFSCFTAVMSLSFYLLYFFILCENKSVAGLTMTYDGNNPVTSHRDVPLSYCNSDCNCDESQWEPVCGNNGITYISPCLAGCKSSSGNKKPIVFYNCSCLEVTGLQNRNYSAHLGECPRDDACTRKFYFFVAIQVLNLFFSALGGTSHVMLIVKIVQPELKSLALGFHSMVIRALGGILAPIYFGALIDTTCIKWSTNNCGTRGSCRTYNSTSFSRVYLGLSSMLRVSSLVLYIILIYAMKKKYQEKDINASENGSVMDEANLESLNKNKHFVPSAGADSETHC

OCT2 [2] = molecular target: T3, OCT2 (Homo sapiens, UniProt O15244); assay: Inhibitory effect of catalposide on OCT2 transport activity; assay type: in vitro ADME; conditions: probe 0.1 μM [3H]MPP+, catalposide 0–100 μM
T3 sequence (O15244 1-555): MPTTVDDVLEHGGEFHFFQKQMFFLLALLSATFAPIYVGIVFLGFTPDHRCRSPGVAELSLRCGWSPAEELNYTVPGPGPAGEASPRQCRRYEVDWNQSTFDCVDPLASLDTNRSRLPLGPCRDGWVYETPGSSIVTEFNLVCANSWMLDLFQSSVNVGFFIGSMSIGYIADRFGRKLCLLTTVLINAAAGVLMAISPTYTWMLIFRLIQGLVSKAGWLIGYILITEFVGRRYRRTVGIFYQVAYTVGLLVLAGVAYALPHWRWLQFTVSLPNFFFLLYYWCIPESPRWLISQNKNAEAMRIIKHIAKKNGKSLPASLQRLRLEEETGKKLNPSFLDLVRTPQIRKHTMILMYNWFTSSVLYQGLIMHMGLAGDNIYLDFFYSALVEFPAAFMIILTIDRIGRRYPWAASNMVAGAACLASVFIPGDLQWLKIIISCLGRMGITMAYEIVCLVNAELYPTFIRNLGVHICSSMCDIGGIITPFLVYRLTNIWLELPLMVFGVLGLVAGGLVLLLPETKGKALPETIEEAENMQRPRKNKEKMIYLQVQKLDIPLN

OATP1B3 = molecular target: T4, OATP1B3 (Homo sapiens, UniProt Q9NPD5); assay: Uptake in HEK293 cells overexpressing OATP1B3; assay type: in vitro ADME; conditions: OATP1B3-mediated uptake
T4 sequence (Q9NPD5 1-702): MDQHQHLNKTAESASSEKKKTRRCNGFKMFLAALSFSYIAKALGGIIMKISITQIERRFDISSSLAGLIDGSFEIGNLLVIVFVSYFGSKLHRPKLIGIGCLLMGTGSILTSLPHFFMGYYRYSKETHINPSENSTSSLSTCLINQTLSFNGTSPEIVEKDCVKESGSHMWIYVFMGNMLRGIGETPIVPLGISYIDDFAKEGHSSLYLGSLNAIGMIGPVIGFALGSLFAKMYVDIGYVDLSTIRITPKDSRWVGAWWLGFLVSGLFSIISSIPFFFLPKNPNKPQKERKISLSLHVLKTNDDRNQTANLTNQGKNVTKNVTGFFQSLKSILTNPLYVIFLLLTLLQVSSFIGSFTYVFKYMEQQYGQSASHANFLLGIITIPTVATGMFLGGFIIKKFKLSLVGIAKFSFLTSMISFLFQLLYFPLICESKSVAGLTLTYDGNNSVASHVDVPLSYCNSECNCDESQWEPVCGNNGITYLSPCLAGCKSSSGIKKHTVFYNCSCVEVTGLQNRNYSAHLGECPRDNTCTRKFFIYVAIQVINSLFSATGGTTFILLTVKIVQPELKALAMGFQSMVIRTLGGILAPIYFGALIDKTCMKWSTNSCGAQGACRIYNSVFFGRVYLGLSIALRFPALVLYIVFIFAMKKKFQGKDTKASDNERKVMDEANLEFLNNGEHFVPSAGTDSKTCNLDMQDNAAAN

[3] = 3-hour incubation in rat plasma; cited from earlier work
P-gp = P-gp (Homo sapiens, UniProt P08183); assay: A-to-B and B-to-A transport in LLC-PK1 cells overexpressing P-gp; assay type: in vitro ADME; conditions: P-gp (MDR1), efflux
OAT1 [4] = molecular target: T1, OAT1; assay: Uptake in HEK293 cells overexpressing OAT1; assay type: in vitro ADME; conditions: OAT1, influx
OCT2 [5] = molecular target: T3, OCT2; assay: Uptake in HEK293 cells overexpressing OCT2; assay type: in vitro ADME; conditions: OCT2, influx

Sequence of P-gp (P08183 whole entry): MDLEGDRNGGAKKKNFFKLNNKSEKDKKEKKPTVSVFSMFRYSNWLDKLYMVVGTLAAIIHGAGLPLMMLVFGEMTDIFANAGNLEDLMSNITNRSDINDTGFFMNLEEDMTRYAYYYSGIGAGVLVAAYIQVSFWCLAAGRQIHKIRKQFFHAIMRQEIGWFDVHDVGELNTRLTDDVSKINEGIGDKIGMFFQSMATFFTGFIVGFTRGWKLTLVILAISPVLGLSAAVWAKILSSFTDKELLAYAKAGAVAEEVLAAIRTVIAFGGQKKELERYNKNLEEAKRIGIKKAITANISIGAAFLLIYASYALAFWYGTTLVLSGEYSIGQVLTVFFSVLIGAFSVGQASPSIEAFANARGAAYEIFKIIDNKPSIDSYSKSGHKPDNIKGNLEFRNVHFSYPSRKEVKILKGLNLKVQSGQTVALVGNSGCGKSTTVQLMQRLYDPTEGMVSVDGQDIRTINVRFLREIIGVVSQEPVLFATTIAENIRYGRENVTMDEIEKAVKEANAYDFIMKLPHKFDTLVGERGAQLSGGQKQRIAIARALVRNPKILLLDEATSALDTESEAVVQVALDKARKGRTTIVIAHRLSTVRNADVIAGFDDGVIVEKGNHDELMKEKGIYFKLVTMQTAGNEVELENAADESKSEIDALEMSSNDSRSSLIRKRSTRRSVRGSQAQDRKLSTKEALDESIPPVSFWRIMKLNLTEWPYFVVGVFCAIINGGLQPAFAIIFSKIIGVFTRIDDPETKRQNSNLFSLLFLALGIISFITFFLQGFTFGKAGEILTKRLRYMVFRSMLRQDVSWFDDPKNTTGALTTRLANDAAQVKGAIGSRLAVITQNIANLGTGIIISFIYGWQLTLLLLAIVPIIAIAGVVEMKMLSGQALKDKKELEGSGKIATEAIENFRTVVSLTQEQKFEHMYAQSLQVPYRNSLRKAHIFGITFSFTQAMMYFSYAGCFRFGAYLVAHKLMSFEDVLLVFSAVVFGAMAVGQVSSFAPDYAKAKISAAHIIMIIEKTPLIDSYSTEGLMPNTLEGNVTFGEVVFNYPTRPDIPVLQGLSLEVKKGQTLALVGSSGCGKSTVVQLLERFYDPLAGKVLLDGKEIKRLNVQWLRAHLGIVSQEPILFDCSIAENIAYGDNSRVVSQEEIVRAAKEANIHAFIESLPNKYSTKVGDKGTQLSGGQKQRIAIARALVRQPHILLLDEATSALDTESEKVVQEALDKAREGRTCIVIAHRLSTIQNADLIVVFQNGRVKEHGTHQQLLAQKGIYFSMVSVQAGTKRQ

O=C(O[C@H]1[C@@H]2C=CO[C@@H](O[C@@H]3O[C@H](CO)[C@@H](O)[C@H](O)[C@H]3O)[C@@H]2[C@@]2(CO)O[C@@H]12)c1ccc(O)cc1 [catalposide]
Inhibitor (OAT1 [1]): did not significantly inhibit
Hill coefficient n (OATP1B1): ~1
Inhibitor (OCT2 [2]): did not significantly inhibit
Hill coefficient n (OATP1B3): ~1
Stability [3]: remained stable
Substrate (P-gp): not involved; also recorded: not a substrate
Substrate (OAT1 [4]): not involved
Substrate (OCT2 [5]): not involved
